SMILES strings stand for the structures. pIC50: −log10 of the molar value.

For the assay, the target named is PIK3CA (human) (UniProt P42336). Briefly: Assessment of PIK3CA Kinase Activity.
Chain of PIK3CA (human) (P42336 whole entry, looked up): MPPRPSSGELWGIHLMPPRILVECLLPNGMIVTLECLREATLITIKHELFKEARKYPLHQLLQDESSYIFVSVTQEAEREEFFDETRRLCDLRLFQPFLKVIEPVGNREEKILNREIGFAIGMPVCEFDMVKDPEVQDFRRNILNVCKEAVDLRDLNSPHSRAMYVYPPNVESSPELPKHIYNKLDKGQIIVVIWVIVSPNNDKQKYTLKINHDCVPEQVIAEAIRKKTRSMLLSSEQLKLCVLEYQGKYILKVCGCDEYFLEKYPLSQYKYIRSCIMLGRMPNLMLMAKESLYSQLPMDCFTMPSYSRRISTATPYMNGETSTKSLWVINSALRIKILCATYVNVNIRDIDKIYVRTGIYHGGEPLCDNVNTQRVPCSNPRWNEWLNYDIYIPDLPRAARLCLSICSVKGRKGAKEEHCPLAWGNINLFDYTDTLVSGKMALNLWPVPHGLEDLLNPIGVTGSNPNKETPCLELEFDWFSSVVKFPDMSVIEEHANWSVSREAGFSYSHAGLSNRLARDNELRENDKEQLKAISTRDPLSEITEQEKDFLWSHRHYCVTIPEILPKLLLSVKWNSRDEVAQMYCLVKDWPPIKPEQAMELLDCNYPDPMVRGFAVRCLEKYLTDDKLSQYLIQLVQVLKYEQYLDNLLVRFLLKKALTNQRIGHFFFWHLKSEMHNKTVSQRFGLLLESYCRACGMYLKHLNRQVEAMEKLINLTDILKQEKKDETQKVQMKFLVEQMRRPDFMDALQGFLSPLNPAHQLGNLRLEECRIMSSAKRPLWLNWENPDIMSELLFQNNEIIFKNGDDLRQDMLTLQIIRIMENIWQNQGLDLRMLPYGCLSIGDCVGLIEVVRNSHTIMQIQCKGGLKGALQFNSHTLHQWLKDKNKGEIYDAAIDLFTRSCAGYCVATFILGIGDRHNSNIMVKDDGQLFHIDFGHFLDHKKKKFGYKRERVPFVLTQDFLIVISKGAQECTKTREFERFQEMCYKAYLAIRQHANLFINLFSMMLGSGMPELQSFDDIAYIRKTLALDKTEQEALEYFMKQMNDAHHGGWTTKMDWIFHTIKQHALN
Usually pIC50 stands for the IC50 on a negative log10 scale, so that one unit is a factor of ten. Take `CC(=O)Nc1nc2ccc(-c3cnc(Cl)c(NS(C)(=O)=O)c3)nc2s1`: the pIC50 was more than 7.00.

On to `CNC(=O)c1ccc(-c2ccc3nc(NC(C)=O)sc3n2)cn1`, for which the pIC50 was more than 7.00.

Consider `CC(=O)Nc1nc2ccc(-c3cnc(N)cn3)cc2s1`, for which the pIC50 is more than 7.00.

As for `CONC(=O)c1ccc(-c2ccc3nc(NC(C)=O)sc3n2)cc1`, the pIC50 was more than 7.00.

Turning to `CC(=O)Nc1nc2ccc(-c3cnc4cc[nH]c4c3)nc2s1`, the pIC50 was more than 7.00.

In the case of `CC(=O)Nc1nc2ccc(-c3ccc(N)cc3)cc2s1`, the pIC50 is 6.00 to 7.00.

Take `CC(=O)Nc1nc2ccc(-c3ccc4[nH]cc(C(N)=O)c4c3)cc2s1`: the pIC50 was 6.00 to 7.00.

`CC(=O)Nc1nc2cnc(-c3ccc(N)nc3)nc2s1` gave a pIC50 of 6.00 to 7.00.

Turning to `CONC(=O)c1cccc(-c2ccc3nc(NC(C)=O)sc3n2)c1`, the pIC50 is more than 7.00.

For `CC(=O)Nc1nc2ccc(-c3cnc4[nH]ccc4c3)nc2s1`, the pIC50 is more than 7.00.

Take `CC(=O)Nc1nc2ccc(-c3ccc(-c4nnc[nH]4)cc3)nc2s1`: the pIC50 was more than 7.00.

`CC(=O)Nc1nc2ccc(-c3ccc4c(c3)CC(=O)N4)nc2s1` showed a pIC50 of more than 7.00.

`CS(=O)(=O)Nc1cc(-c2ccc3nc(NC(=O)C4CC4)sc3n2)cnc1Cl` gave a pIC50 of more than 7.00.

On to `CNC(=O)c1cccc(-c2ccc3nc(NC(C)=O)sc3c2)c1`, for which the pIC50 was 6.00 to 7.00.

`CC(=O)Nc1nc2ccc(-c3cnc(Cl)c(NS(C)(=O)=O)c3)cc2s1` showed a pIC50 of more than 7.00.

In turn, `CC(=O)Nc1nc2ccc(-c3ccc4nccn4c3)nc2s1` gave a pIC50 of more than 7.00.

Take `CC(=O)Nc1nc2ccc(-c3cnc(Cl)c(NS(=O)(=O)C4CC4)c3)nc2s1`: the pIC50 is 6.00 to 7.00.

For `CC(=O)Nc1nc2cnc(-c3cnc(Cl)c(N)c3)nc2s1`, the pIC50 was 6.00 to 7.00.

`CNC(=O)c1ccc(-c2ccc3nc(NC(C)=O)sc3n2)cc1`: the pIC50 was more than 7.00.

As to `CCS(=O)(=O)Nc1cc(-c2ccc3nc(NC(C)=O)sc3n2)cnc1Cl`, the pIC50 was more than 7.00.

Regarding `CC(=O)Nc1nc2cnc(-c3cnc(N)c(C(F)(F)F)c3)nc2s1`, the pIC50 was more than 7.00.

`CC(=O)Nc1nc2ccc(-c3ccccc3N)nc2s1` showed a pIC50 of 6.00 to 7.00.

In turn, `CC(=O)Nc1nc2ccc(-c3ccc4[nH]ccc4c3)cc2s1` had a pIC50 of 6.00 to 7.00.

`CC(=O)Nc1nc2ccc(-c3ccc(C#N)nc3)nc2s1`: the pIC50 was 6.00 to 7.00.

`CC(=O)Nc1nc2ccc(-c3ccncc3)nc2s1`: the pIC50 was 6.00 to 7.00.

`CC(=O)Nc1nc2ccc(-c3ccc4[nH]ncc4c3)nc2s1`: the pIC50 is more than 7.00.

Turning to `CC(=O)Nc1ccc(-c2ccc3nc(NC(C)=O)sc3n2)cc1`, the pIC50 was 6.00 to 7.00.

With `CC(=O)Nc1nc2ccc(-c3cnc(Cl)c(NS(=O)(=O)c4ccccc4)c3)nc2s1`, the pIC50 was more than 7.00.

Consider `CC(=O)Nc1nc2ccc(-c3ccc4[nH]ccc4c3)nc2s1`, for which the pIC50 is 6.00 to 7.00.

Compound `CC(=O)Nc1ccc(-c2ccc3nc(NC(C)=O)sc3n2)cn1` showed a pIC50 of 6.00 to 7.00.

Take `CC(=O)Nc1nc2ccc(-c3ccc4[nH]cc(C=O)c4c3)cc2s1`: the pIC50 was more than 7.00.

Compound `CC(=O)Nc1nc2cnc(-c3cnc(Cl)c(NS(C)(=O)=O)c3)nc2s1` had a pIC50 of more than 7.00.

Source of the values: the Kinase Knowledgebase extract (Sharma et al. 2016).
